This note sets out measurements from patent US20070128217A1 (priority 2003, published 2007).

The test system of assay [1] is rabbit serum obtained by immunizing a rabbit with the SARS-CoV strain Frankfurt 1. The class given is binding. Details: Binding of a rabbit serum to linear peptides / Binding of a rabbit serum to looped peptides / Rabbit serum linear peptides / Rabbit serum looped peptides / Binding of a rabbit serum to linear peptides of protein N of SARS-CoV Urbani (Rabbit serum linear peptides) / Binding of a rabbit serum to looped/cyclic peptides of protein N of SARS-CoV Urbani (Rabbit serum looped peptides): unit not given here.

In assay [2] the test system is recombinant human anti-SARS-CoV antibody 03-018. The class given is binding. Details: Binding of antibody 03-018 to linear peptides of the N protein of SARS-CoV Urbani / Binding of antibody 03-018 to looped/cyclic peptides of the N protein of SARS-CoV Urbani: unit not given here.
Assay [3] relates to antibodies in sera from SARS patients (sera 1a, 1b, 2, 6, 37, 62, London, SARS-yellow, SARS-green). It counts as binding, human. Details: Binding of serum 6 to linear peptides of protein X1 of SARS-CoV Urbani / Binding of serum 37 to linear peptides of protein X1 of SARS-CoV Urbani / Binding of serum 6 to looped/cyclic peptide (PEPSCAN-ELISA) / Binding of serum 37 to looped/cyclic peptide (PEPSCAN-ELISA) / Binding of serum 37 to looped/cyclic peptides of protein X1 of SARS-CoV Urbani / Binding of serum 6 to linear peptides of protein X2 / Binding of serum 37 to linear peptides of protein X2 / Binding of serum 37 to looped/cyclic peptides of protein X2 of SARS-CoV Urbani / Binding of serum 6 to linear peptides of protein M of SARS-CoV Urbani / Binding of serum 37 to linear peptides of protein M of SARS-CoV Urbani / Binding of serum 6 to looped/cyclic peptides of protein M of SARS-CoV Urbani / Binding of serum 37 to looped/cyclic peptides of protein M of SARS-CoV Urbani / Binding of serum 6 to linear peptides of protein X3 of SARS-CoV Urbani / Binding of serum 37 to linear peptides of protein X3 of SARS-CoV Urbani / Binding of serum 37 to looped/cyclic peptides of protein X3 of SARS-CoV Urbani / Binding of serum 6 to linear peptides of protein X4 of SARS-CoV Urbani / Binding of serum 37 to linear peptides of protein X4 of SARS-CoV Urbani / Binding of serum 37 to looped/cyclic peptides of protein X4 of SARS-CoV Urbani / Binding of serum 6 to linear peptides of protein X5 of SARS-CoV Urbani / Binding of serum 37 to linear peptides of protein X5 of SARS-CoV Urbani / Binding of serum 37 to looped/cyclic peptides of protein X5 of SARS-CoV Urbani / Binding of serum 6 to linear peptides of protein N of SARS-CoV Urbani / Binding of serum 37 to linear peptides of protein N of SARS-CoV Urbani / Binding of serum 6 to linear peptide (PEPSCAN-ELISA) / Binding of serum 1a to looped/cyclic peptides of protein N of SARS-CoV Urbani / Binding of serum 1b to looped/cyclic peptides of protein N of SARS-CoV Urbani / Binding of serum 2 to looped/cyclic peptides of protein N of SARS-CoV Urbani / Binding of serum 6 to looped/cyclic peptides of protein N of SARS-CoV Urbani / Binding of serum 37 to looped/cyclic peptides of protein N of SARS-CoV Urbani / Binding of serum 62 to looped/cyclic peptides of protein N of SARS-CoV Urbani / Binding of serum London to looped/cyclic peptides of protein N of SARS-CoV Urbani / Binding of serum SARS-green to looped/cyclic peptides of protein N of SARS-CoV Urbani: unit not given here.

Assay [4] has as its system control sera (pooled serum of ten healthy LUMC hospital workers; commercial negative donor pooled serum from the Dutch bloodbank). The class given is binding, human. The arrangement: Binding of Control serum LUMC to linear peptides / Binding of Control serum Blood-bank to linear peptides / Binding of Control serum LUMC to looped peptides / Binding of Control Serum Blood-Bank to Looped peptides / Binding of Control serum LUMC to linear peptides of the protein M of SARS-CoV Urbani / Binding of Control serum Blood-bank to linear peptides of the protein M of SARS-CoV Urbani / Binding of Control serum LUMC to looped peptides of the protein M of SARS-CoV Urbani / Binding of Control Serum Blood-Bank to Looped peptides of the protein M of SARS-CoV Urbani: unit not given here.

Take PKQRRPQGLPNNTAS: in assay [1], the “Binding of a rabbit serum to linear peptides of protein N of SARS-CoV Urbani (Rabbit serum linear peptides)” value (“Binding … (Rabbit serum linear peptides)” for short) came to 0.2 and the “Binding of a rabbit serum to looped/cyclic peptides of protein N of SARS-CoV Urbani (Rabbit serum looped peptides)” value is 0.2. In addition, in assay [2], the “Binding of antibody 03-018 to linear peptides of the N protein of SARS-CoV Urbani” value was determined as 0.2 and the “Binding of antibody 03-018 to looped/cyclic peptides of the N protein of SARS-CoV Urbani” value is 0.3. Further, in assay [3], the “Binding of serum 1a to linear peptides of protein N of SARS-CoV Urbani” value is 0.2, the “Binding of serum 1a to looped/cyclic peptides of protein N of SARS-CoV Urbani” value is 0.5, the “Binding of serum 1b to linear peptides of protein N of SARS-CoV Urbani” value was found to be 0.1 and the “Binding of serum 1b to looped/cyclic peptides of protein N of SARS-CoV Urbani” value was found to be 0.5. Also, in assay [3], the “Binding of serum 2 to linear peptides of protein N of SARS-CoV Urbani” value came out at 0.4, the “Binding of serum 2 to looped/cyclic peptides of protein N of SARS-CoV Urbani” value was found to be 0.8, the “Binding of serum 6 to linear peptides of protein N of SARS-CoV Urbani” value came to 0.2 and the “Binding of serum 6 to looped/cyclic peptides of protein N of SARS-CoV Urbani” value is 0.4. For the same sequence, in assay [3], the “Binding of serum 37 to linear peptides of protein N of SARS-CoV Urbani” value was determined as 0.9, the “Binding of serum 37 to looped/cyclic peptides of protein N of SARS-CoV Urbani” value amounted to 0.8, the “Binding of serum 62 to linear peptides of protein N of SARS-CoV Urbani” value is on record as 0.7 and the “Binding of serum 62 to looped/cyclic peptides of protein N of SARS-CoV Urbani” value worked out at 0.7. Moreover, in assay [3], the “Binding of serum London to linear peptides of protein N of SARS-CoV Urbani” value was 0.6, the “Binding of serum London to looped/cyclic peptides of protein N of SARS-CoV Urbani” value turned out to be 0.6, the “Binding of serum SARS-green to linear peptides of protein N of SARS-CoV Urbani” value was 0.6 and the “Binding of serum SARS-green to looped/cyclic peptides of protein N of SARS-CoV Urbani” value was 3.1. Besides, in assay [3], the “Binding of serum SARS-yellow to linear peptides of protein N of SARS-CoV Urbani” value came to 0.6 and the “Binding of serum SARS-yellow to looped/cyclic peptides of protein N of SARS-CoV Urbani” value worked out at 0.9. Moreover, in assay [4], the “Binding of Control Serum Blood-Bank to Looped peptides” value is 0.8, the “Binding of Control serum Blood-bank to linear peptides” value is on record as 0.8, the “Binding of Control serum LUMC to linear peptides” value is recorded as 0.7 and the “Binding of Control serum LUMC to looped peptides” value came to 1.0.

Regarding PLPQRQKKQPTVTLL, in assay [1], the “Binding … (Rabbit serum linear peptides)” value is reported as 0.1 and the “Binding of a rabbit serum to looped/cyclic peptides of protein N of SARS-CoV Urbani (Rabbit serum looped peptides)” value stood at 0.7. In assay [2], the “Binding of antibody 03-018 to linear peptides of the N protein of SARS-CoV Urbani” value turned out to be 0.1 and the “Binding of antibody 03-018 to looped/cyclic peptides of the N protein of SARS-CoV Urbani” value is reported as 0.3. In assay [3], the “Binding of serum 1a to linear peptides of protein N of SARS-CoV Urbani” value amounted to 0.2, the “Binding of serum 1b to linear peptides of protein N of SARS-CoV Urbani” value worked out at 0.1, the “Binding of serum 2 to linear peptides of protein N of SARS-CoV Urbani” value is on record as 0.2 and the “Binding of serum 6 to linear peptides of protein N of SARS-CoV Urbani” value is listed as 0.2. Also, in assay [3], the “Binding of serum 37 to linear peptides of protein N of SARS-CoV Urbani” value turned out to be 0.5, the “Binding of serum 62 to linear peptides of protein N of SARS-CoV Urbani” value turned out to be 0.6, the “Binding of serum London to linear peptides of protein N of SARS-CoV Urbani” value is listed as 1.0 and the “Binding of serum SARS-green to linear peptides of protein N of SARS-CoV Urbani” value came out at 0.2. Moreover, in assay [3], the “Binding of serum SARS-yellow to linear peptides of protein N of SARS-CoV Urbani” value is on record as 1.0; the “Recognition of the peptide by sera of SARS-CoV infected individuals, and form (linear, looped/cyclic) in which it is recognized” value is “recognized in looped/cyclic form”. Further, in assay [4], the “Control Serum Blood-Bank Looped peptides” value was determined as 1.1, the “Control serum Blood-bank linear peptides” value amounted to 0.7, the “Control serum LUMC linear peptides” value came out at 0.5 and the “Control serum LUMC looped peptides” value was found to be 1.1.

PNNNAATVLQLPQGT: in assay [1], the “Binding … (Rabbit serum linear peptides)” value is 0.0 and the “Binding of a rabbit serum to looped/cyclic peptides of protein N of SARS-CoV Urbani (Rabbit serum looped peptides)” value is 0.2. Further, in assay [2], the “Binding of antibody 03-018 to linear peptides of the N protein of SARS-CoV Urbani” value amounted to 0.1 and the “Binding of antibody 03-018 to looped/cyclic peptides of the N protein of SARS-CoV Urbani” value was 0.3. In assay [3], the “Binding of serum 1a to linear peptides of protein N of SARS-CoV Urbani” value is reported as 0.2, the “Binding of serum 1a to looped/cyclic peptides of protein N of SARS-CoV Urbani” value was found to be 0.5, the “Binding of serum 1b to linear peptides of protein N of SARS-CoV Urbani” value was determined as 0.1 and the “Binding of serum 1b to looped/cyclic peptides of protein N of SARS-CoV Urbani” value was found to be 0.4. Moreover, in assay [3], the “Binding of serum 2 to linear peptides of protein N of SARS-CoV Urbani” value was determined as 0.2, the “Binding of serum 2 to looped/cyclic peptides of protein N of SARS-CoV Urbani” value is 0.8, the “Binding of serum 6 to linear peptides of protein N of SARS-CoV Urbani” value is listed as 0.1 and the “Binding of serum 6 to looped/cyclic peptides of protein N of SARS-CoV Urbani” value is 0.3. Besides, in assay [3], the “Binding of serum 37 to linear peptides of protein N of SARS-CoV Urbani” value was determined as 0.6, the “Binding of serum 37 to looped/cyclic peptides of protein N of SARS-CoV Urbani” value is recorded as 1.0, the “Binding of serum 62 to linear peptides of protein N of SARS-CoV Urbani” value was 0.6 and the “Binding of serum 62 to looped/cyclic peptides of protein N of SARS-CoV Urbani” value is recorded as 0.9. For the same sequence, in assay [3], the “Binding of serum London to linear peptides of protein N of SARS-CoV Urbani” value is 0.5, the “Binding of serum London to looped/cyclic peptides of protein N of SARS-CoV Urbani” value is reported as 0.7, the “Binding of serum SARS-green to linear peptides of protein N of SARS-CoV Urbani” value is reported as 0.3 and the “Binding of serum SARS-green to looped/cyclic peptides of protein N of SARS-CoV Urbani” value turned out to be 0.7. In assay [3], the “Binding of serum SARS-yellow to linear peptides of protein N of SARS-CoV Urbani” value is on record as 0.7 and the “Binding of serum SARS-yellow to looped/cyclic peptides of protein N of SARS-CoV Urbani” value stood at 0.5. In addition, in assay [4], the “Binding of Control Serum Blood-Bank to Looped peptides” value was 0.9, the “Binding of Control serum Blood-bank to linear peptides” value was determined as 0.6, the “Binding of Control serum LUMC to linear peptides” value is on record as 0.6 and the “Binding of Control serum LUMC to looped peptides” value came to 0.8.

As to PQRQKKQPTVTLLPA, in assay [1], the “Binding … (Rabbit serum linear peptides)” value came to 0.2 and the “Binding of a rabbit serum to looped/cyclic peptides of protein N of SARS-CoV Urbani (Rabbit serum looped peptides)” value turned out to be 0.7. In assay [2], the “Binding of antibody 03-018 to linear peptides of the N protein of SARS-CoV Urbani” value is given as 0.1 and the “Binding of antibody 03-018 to looped/cyclic peptides of the N protein of SARS-CoV Urbani” value was found to be 0.3. In addition, in assay [3], the “Binding of serum 1a to linear peptides of protein N of SARS-CoV Urbani” value amounted to 0.3, the “Binding of serum 1b to linear peptides of protein N of SARS-CoV Urbani” value is on record as 0.2, the “Binding of serum 2 to linear peptides of protein N of SARS-CoV Urbani” value was 0.3 and the “Binding of serum 6 to linear peptides of protein N of SARS-CoV Urbani” value is given as 0.2. In assay [3], the “Binding of serum 37 to linear peptides of protein N of SARS-CoV Urbani” value was determined as 0.7, the “Binding of serum 62 to linear peptides of protein N of SARS-CoV Urbani” value is listed as 0.7, the “Binding of serum London to linear peptides of protein N of SARS-CoV Urbani” value is on record as 0.5 and the “Binding of serum SARS-green to linear peptides of protein N of SARS-CoV Urbani” value is listed as 0.5. In assay [3], the “Binding of serum SARS-yellow to linear peptides of protein N of SARS-CoV Urbani” value is given as 0.6; the “Recognition of the peptide by sera of SARS-CoV infected individuals, and form (linear, looped/cyclic) in which it is recognized” value is reported as “recognized in looped/cyclic form”. In assay [4], the “Control Serum Blood-Bank Looped peptides” value came out at 0.9, the “Control serum Blood-bank linear peptides” value is listed as 0.8, the “Control serum LUMC linear peptides” value is listed as 0.7 and the “Control serum LUMC looped peptides” value stood at 0.7.
